Measurements as given in patent publication US20220349015A1, “DIAGNOSIS AND TREATMENT OF THYROID CANCER” (Beth Israel Deaconess Medical Center, Inc., priority 2019, published 2022).

Columns and labels:
[1] = test system: Xloc13 lincRNA expression in BRAF^V600E PTC-derived cells; test: qPCR of Xloc13 expression in BRAF^V600E PTC-derived cells; type: cell-based, human; conditions: metastatic or non-metastatic PTC-derived cells; vs. vehicle
[2] = test system: TPO and TTF-1 mRNA in BRAF^V600E PTC-derived cells; test: qPCR of iodide metabolism genes (TPO, TTF-1 mRNA) in PTC-derived cells
[3] = test system: human invasive heterozygous BRAF^WT/V600E PTC-derived cell line; test: Invasion of human invasive BRAF^WT/V600E PTC-derived cell line; type: cell-based
[4] = test system: BRAF^V600E PTC-derived cells; test: 123-Iodide uptake in vitro; conditions: Xloc13 lincRNA; synergizes with vemurafenib
[5] = test system: BRAF^WT/V600E PTC-derived cell line xenograft tumors; test: Xenograft mouse model of human invasive heterozygous BRAF^WT/V600E PTC-derived cell line
[6] = Xloc13+ BRAF^WT/V600E PTC-derived cells

Molecule	rescue of Xloc13 expression (qPCR) [1]	TPO and TTF-1 mRNA levels rise ([2]; cells engineered to over-express Xloc13 (Xloc13+) during treatment with vemurafenib) [fold-changes]	invasion ([3]; Xloc13 lincRNA overexpression alone)	invasion ([3]; Xloc13 lincRNA overexpression plus vemurafenib)	123-iodide uptake/organification in vitro [4]	TPO mRNA expression levels ([2]; Xloc13 lincRNA over-expression in PTC-derived cell lines)	EZH2 protein levels [5, 6]	H3K27me3 (EZH2 effector) [5, 6]	decrease in growth ([5]; Xloc13+ cells under vemurafenib therapy vs. backbone vector control) [fold]	123-Iodide uptake in xenograft tumors (nano-SPECT imaging) ([5]; Xloc13+ tumors of vemurafenib-treated mice vs. vehicle-treated backbone vector controls)
CCCS(=O)(=O)Nc1ccc(F)c(C(=O)c2c[nH]c3ncc(-c4ccc(Cl)cc4)cc23)c1F [vemurafenib, reference compound]	4-6 fold-changes	~3.5	–	–	–	–	–	–	–	–
Xloc13 lincRNA: thyroid-specific long intergenic non-coding RNA (2.257 kb, SEQ ID NO: 1), over-expressed from a vector in PTC-derived cells	–	–	inhibited invasion	inhibits invasion	crucial for the rescue	up-regulates TPO mRNA expression levels	transcriptionally down-regulated EZH2 protein levels	reducing its effector H3K27me3	> 3	significantly crucial for the recovery
